In patent EP3046573B1, “AMYLIN ANALOGUES” (Zealand Pharma A/S, priority 2013, dated 2015):
Like-named read-outs stand apart in the source and are kept apart here. Numbered stars: 1 amine (or outer) side, 2 acyl side, 3 side chain; on linkers, the order of the positions; unused ones are H or OH. Bridge positions count the residues as written; N and C are the ends. Square brackets hold non-standard residues; d marks the D form. Peptide text beside a SMILES is read from it. * marks the point of attachment. C20 diacid = O=C(O)CCCCCCCCCCCCCCCCCCC(=O)*; Arachidoyl = CCCCCCCCCCCCCCCCCCCC(=O)*; γGlu = O=C(O)[C@H](CCC(=O)[*:2])N[*:1]; NMeI = CC[C@H](C)[C@H](NC)C(=O)O; Sar = CNCC(=O)O

Columns and labels:
[1] = molecular target: T1, human calcitonin receptor (hCTR2) (Homo sapiens, UniProt P30988); assay: hCTR2 assay: induction of cAMP (AlphaScreen cAMP Assay kit) in COS7 cells expressing hCTR2; assay type: cell-based
T1 construct: expressed in transfected cells
T1 sequence (P30988 25-474): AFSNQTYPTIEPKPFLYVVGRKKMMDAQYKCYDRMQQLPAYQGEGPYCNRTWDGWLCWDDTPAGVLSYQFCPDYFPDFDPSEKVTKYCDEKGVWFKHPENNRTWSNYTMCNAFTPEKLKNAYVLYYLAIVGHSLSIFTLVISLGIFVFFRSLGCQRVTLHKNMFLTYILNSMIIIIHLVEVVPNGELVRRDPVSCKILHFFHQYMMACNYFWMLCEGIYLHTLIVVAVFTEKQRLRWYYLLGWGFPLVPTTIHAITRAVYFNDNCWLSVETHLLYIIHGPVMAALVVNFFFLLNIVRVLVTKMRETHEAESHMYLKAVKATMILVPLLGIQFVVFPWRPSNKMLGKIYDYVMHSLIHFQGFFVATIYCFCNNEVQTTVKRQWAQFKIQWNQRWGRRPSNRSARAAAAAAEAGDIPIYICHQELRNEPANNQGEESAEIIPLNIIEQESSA
Excerpt: The cell line COS7, originating from African Green Monkey kidney fibroblast cells, was used for establishment of the stable cell lines described below. The COS7 cellular background was used due to it being RAMP naive, and as such it provides the best available system for testing of the monomeric hCTR and different heterodimeric amylin receptor subtypes functionally generated by introduction of the individual RAMPs.
A cell line expressing the human calcitonin receptor (hCTR2) was generated in the COS7 cellular background as stable clones. In brief, hCTR2 (GI: 4502547) was amplified by PCR using primers encoding terminal restriction sites for subcloning. The 5'-end primers additionally encoded a near Kozak consensus sequence to ensure efficient translation. The fidelity of the DNA encoding the receptor was confirmed by DNA sequencing. The PCR products encoding the receptor were subcloned into a mammalian expression vector containing a neomycin (G418) resistance marker. The mammalian expression vector encoding the receptor was transfected into COS7 cells by a standard liposome transfection method. 48 hours post-transfection, cells were seeded for limited dilution cloning and selected with 1 mg/ml G418 in the culture medium. After 3 weeks, surviving colonies of hCTR2-expressing cells were picked, propagated and tested in the amylin efficacy assay as described in Example 3 below. One hCTR2-expressing clone was chosen for compound profiling.
In vitro activity of test peptides at the hCTR2 and hAMYR3 receptors was assessed by measuring the induction of cAMP following stimulation of the receptor by pramlintide or peptides of the invention using the AlphaScreen® cAMP Assay kit from Perkin-Elmer.
Briefly, COS7 cells expressing hCTR2 (see Example 2, above) were seeded at 30-40,000 cells per well in 96-well microtiter plates coated with 0.01 % poly-L-lysine, and grown for 1 day in culture in 100 µl growth medium [DMEM, 10% FCS, Penicillin (100 IU/ml), Streptomycin (100 µg/ml)]. On the day of analysis, growth medium was removed and the cells were washed once with 200 µl Tyrode buffer [Tyrode's Salts (9.6 g/l), 10 mM HEPES, pH 7.4]. Cells were incubated in 100 µl Tyrode buffer containing increasing concentrations of test peptides, 100 µM IBMX and 0.1% casein for 15 min at 37° C. The reaction was stopped by carefully decanting off the compound/buffer medium and replacing it with lysis/detection buffer (80 µl 0.1 % w/v BSA, 5 mM HEPES, 0.3 % v/v Tween-20 in deionized water). After incubation at room temperature for 10 min., the cAMP content of the resulting cell lysate was estimated according to the AlphaScreen® cAMP Assay manufacturer's instructions. EC50 values and relative efficacy values (in %) compared to reference peptide (Pramlintide) were estimated by computer-aided curve fitting using the 4-parameter logistic (4PL) non-linear model.
The in vitro activity results (expressed as EC50 values) for peptides of the invention and for Pramlintide (reference peptide) are summarized in Table 2, below.

[2] = Solubility assessment (turbidity absorbance at 325 nm); assay type: physicochemical; details: stock 2 mg/ml diluted 1:1, ambient temperature (typically 25°C), n=1
Method: A stock solution of the test peptide (2 mg/ml; determined from the weighed amount of peptide) in demineralized water adjusted to pH 2.5 with HCI was prepared, and aliquots were diluted 1:1 in 100 mM acetate buffer (pH 4.0 and pH 5.0), 100 mM histidine buffer (pH 6.0 and pH 7.0) and 100 mM phosphate buffer (pH 6.0, pH 7.0 and pH7.5), respectively, and loaded in a standard flat-bottom, non-sterile 96-well UV Microplate. The absorbance of samples (single samples, n=1) at 280 and 325 nm was measured in an absorbance-based plate reader, which was preheated to ambient temperature (typically 25°C). The turbidity absorbance criterion for a peptide solubility of ≥ 1 mg/ml was an absorbance at 325 nm of ≤ 0.02 absorbance units (which is 5 to 6 times the standard deviation of 8 buffer samples in a plate). Solubility data for peptides of the invention, pramlintide, and for a comparison pramlintide derivative denoted NN96 (see Example 5 below for details) are shown in Table 1, below. Table 1. Solubility data for compounds of the invention.

SMILES: CC[C@H](C)[C@@H](C(=O)N[C@@H](CC(C)C)C(=O)N[C@@H](CO)C(=O)N[C@@H](CO)C(=O)N[C@H](C(=O)N[C@@H](CC(N)=O)C(=O)N[C@H](C(=O)NCC(=O)N[C@@H](CO)C(=O)N[C@@H](CC(N)=O)C(=O)N[C@H](C(=O)N1CCC[C@H]1C(N)=O)[C@@H](C)O)C(C)C)[C@@H](C)O)N(C)C(=O)[C@H](C)NC(=O)CN(C)C(=O)[C@@H](Cc1ccccc1)NC(=O)[C@H](CC(N)=O)NC(=O)[C@H](CC(N)=O)NC(=O)[C@H](CO)NC(=O)[C@H](CO)NC(=O)[C@H](Cc1c[nH]cn1)NC(=O)[C@H](Cc1c[nH]cn1)NC(=O)[C@H](CC(C)C)NC(=O)[C@H](Cc1ccccc1)NC(=O)[C@H](CCC(=O)O)NC(=O)[C@H](C)NC(=O)[C@H](CC(C)C)NC(=O)[C@H](CCCNC(=N)N)NC(=O)[C@H](CCC(N)=O)NC(=O)[C@@H](NC(=O)[C@H](C)NC(=O)[C@@H]1CSSC[C@H](NC(=O)[C@H](CCCNC(=N)N)NC(=O)CC[C@H](NC(=O)CCCCCCCCCCCCCCCCCCC(=O)O)C(=O)O)C(=O)N[C@@H](CC(N)=O)C(=O)N[C@@H]([C@@H](C)O)C(=O)N[C@@H](C)C(=O)N[C@@H]([C@@H](C)O)C(=O)N1)[C@@H](C)O [Compound 13, [19CD]-isoGlu-RC()NTATC()ATQRLAEFLHHSSNN-DPhe-Gly(Me)-A-Ile(Me)-LSSTNVGSNTP-NH2] ({C20 diacid-γGlu}-RCNTATCATQRLAEFLHHSSNN[dF][Sar]A[NMeI]LSSTNVGSNTP-NH2; disulfide 2-7)
- EC50 [1]: 0.067 nM

SMILES: CC[C@H](C)[C@@H](C(=O)N[C@@H](CC(C)C)C(=O)N[C@@H](CO)C(=O)N[C@@H](CO)C(=O)N[C@H](C(=O)N[C@@H](CC(N)=O)C(=O)N[C@H](C(=O)NCC(=O)N[C@@H](CO)C(=O)N[C@@H](CC(N)=O)C(=O)N[C@H](C(=O)N1CCC[C@H]1C(N)=O)[C@@H](C)O)C(C)C)[C@@H](C)O)N(C)C(=O)[C@H](C)NC(=O)[C@@H](C)NC(=O)[C@H](Cc1ccccc1)NC(=O)[C@H](CC(N)=O)NC(=O)[C@H](CC(N)=O)NC(=O)[C@H](CO)NC(=O)[C@H](CO)NC(=O)[C@H](Cc1c[nH]cn1)NC(=O)[C@H](Cc1c[nH]cn1)NC(=O)[C@H](CC(C)C)NC(=O)[C@H](Cc1ccccc1)NC(=O)[C@H](CCC(=O)O)NC(=O)[C@H](C)NC(=O)[C@H](CC(C)C)NC(=O)[C@H](CCCNC(=N)N)NC(=O)[C@H](CCC(N)=O)NC(=O)[C@@H](NC(=O)[C@H](C)NC(=O)[C@@H]1CSSC[C@H](NC(=O)[C@H](CCCNC(=N)N)NC(=O)CC[C@H](NC(=O)CCCCCCCCCCCCCCCCCCC(=O)O)C(=O)O)C(=O)N[C@@H](CC(N)=O)C(=O)N[C@@H]([C@@H](C)O)C(=O)N[C@@H](C)C(=O)N[C@@H]([C@@H](C)O)C(=O)N1)[C@@H](C)O [Compound 17, [19CD]-isoGlu-RC()NTATC()ATQRLAEFLHHSSNNF-DAla-A-Ile(Me)-LSSTNVGSNTP-NH2] ({C20 diacid-γGlu}-RCNTATCATQRLAEFLHHSSNNF[dA]A[NMeI]LSSTNVGSNTP-NH2; disulfide 2-7)
- EC50 ([1]; cAMP induction in COS7 cells expressing hCTR2, average of a minimum of 3 determinations, read-out: hCTR2 EC50): 0.093 nM

SMILES: CC[C@H](C)[C@@H](C(=O)N[C@@H](CC(C)C)C(=O)N[C@@H](CO)C(=O)N[C@@H](CO)C(=O)N[C@H](C(=O)N[C@@H](CC(N)=O)C(=O)N[C@H](C(=O)NCC(=O)N[C@@H](CO)C(=O)N[C@@H](CC(N)=O)C(=O)N[C@H](C(=O)N1CCC[C@H]1C(N)=O)[C@@H](C)O)C(C)C)[C@@H](C)O)N(C)C(=O)[C@H](C)NC(=O)CN(C)C(=O)[C@H](Cc1ccccc1)NC(=O)[C@H](CC(N)=O)NC(=O)[C@H](CC(N)=O)NC(=O)[C@H](CO)NC(=O)[C@H](CO)NC(=O)[C@H](Cc1c[nH]cn1)NC(=O)[C@H](Cc1c[nH]cn1)NC(=O)[C@H](CC(C)C)NC(=O)[C@@H](Cc1ccccc1)NC(=O)[C@H](CCC(=O)O)NC(=O)[C@H](C)NC(=O)[C@H](CC(C)C)NC(=O)[C@H](CCCNC(=N)N)NC(=O)[C@H](CCC(N)=O)NC(=O)[C@@H](NC(=O)[C@H](C)NC(=O)[C@@H]1CSSC[C@H](NC(=O)[C@H](CCCNC(=N)N)NC(=O)CC[C@H](NC(=O)CCCCCCCCCCCCCCCCCCC(=O)O)C(=O)O)C(=O)N[C@@H](CC(N)=O)C(=O)N[C@@H]([C@@H](C)O)C(=O)N[C@@H](C)C(=O)N[C@@H]([C@@H](C)O)C(=O)N1)[C@@H](C)O [Compound 9, [19CD]-isoGlu-RC()NTATC()ATQRLAE-DPhe-LHHSSNNF-Gly(Me)-A-Ile(Me)-LSSTNVGSNTP-NH2] ({C20 diacid-γGlu}-RCNTATCATQRLAE[dF]LHHSSNNF[Sar]A[NMeI]LSSTNVGSNTP-NH2; disulfide 2-7)
- EC50 [1]: 1.1 nM

SMILES: CCCCCCCCCCCCCCCCCCCC(=O)N[C@@H](CCC(=O)N[C@@H](CCCNC(=N)N)C(=O)N[C@H]1CSSC[C@@H](C(=O)N[C@@H](C)C(=O)N[C@H](C(=O)N[C@@H](CCC(N)=O)C(=O)N[C@@H](CCCNC(=N)N)C(=O)N[C@@H](CC(C)C)C(=O)N[C@@H](C)C(=O)N[C@@H](CCC(=O)O)C(=O)N[C@@H](Cc2ccccc2)C(=O)N[C@@H](CC(C)C)C(=O)N[C@@H](Cc2c[nH]cn2)C(=O)N[C@@H](CCCNC(=N)N)C(=O)N[C@@H](CO)C(=O)N[C@@H](CO)C(=O)N[C@@H](CC(N)=O)C(=O)N[C@@H](CC(N)=O)C(=O)N[C@@H](Cc2ccccc2)C(=O)N(C)CC(=O)N[C@@H](C)C(=O)N(C)[C@H](C(=O)N[C@@H](CC(C)C)C(=O)N[C@@H](CO)C(=O)N[C@@H](CO)C(=O)N[C@H](C(=O)N[C@@H](CC(N)=O)C(=O)N[C@H](C(=O)NCC(=O)N[C@@H](CO)C(=O)N[C@@H](CC(N)=O)C(=O)N[C@H](C(=O)N2CCC[C@H]2C(N)=O)[C@@H](C)O)C(C)C)[C@@H](C)O)[C@@H](C)CC)[C@@H](C)O)NC(=O)[C@H]([C@@H](C)O)NC(=O)[C@H](C)NC(=O)[C@H]([C@@H](C)O)NC(=O)[C@H](CC(N)=O)NC1=O)C(=O)O [Compound 94, [Eicosanoyl]-isoGlu-RC()NTATC()ATQRLAEFLHRSSNNF-Gly(Me)-A-Ile(Me)-LSSTNVGSNTP-NH2] ({Arachidoyl-γGlu}-RCNTATCATQRLAEFLHRSSNNF[Sar]A[NMeI]LSSTNVGSNTP-NH2; disulfide 2-7)
- Solubility, Acetate buffer pH 4 ([2]; 100 mM acetate buffer pH 4.0): SS (SS indicates solubility ≥ 1mg/ml)
- Solubility, Acetate buffer pH 5 ([2]; 100 mM acetate buffer pH 5.0): SS (SS indicates solubility ≥ 1mg/ml)
- Solubility, Histidine buffer pH 6 ([2]; 100 mM histidine buffer pH 6.0): SS (SS indicates solubility ≥ 1mg/ml)
- Solubility, Histidine buffer pH 7 ([2]; 100 mM histidine buffer pH 7.0): SS (SS indicates solubility ≥ 1mg/ml)
- Solubility, Phosphate buffer pH 6 ([2]; 100 mM phosphate buffer pH 6.0): SS (SS indicates solubility ≥ 1mg/ml)
- Solubility, Phosphate buffer pH 7 ([2]; 100 mM phosphate buffer pH 7.0): SS (SS indicates solubility ≥ 1mg/ml)
- Solubility, Phosphate buffer pH 7.5 ([2]; 100 mM phosphate buffer pH7.5): SS (SS indicates solubility ≥ 1mg/ml)
